Measurements: patent US20260306638A1, “COMPOUNDS AND USES THEREOF” (FOGHORN THERAPEUTICS INC., priority 2023, published 2026)

Key:
HiBit-BRM fusion protein = target: T1, HiBit-BRM fusion protein (Homo sapiens, UniProt P51531); assay: HiBiT-BRM degradation in a stable HeLa cell line (cell-based degradation assay, Nano-Glo HiBiT Lytic Detection); settings: HeLa cells, 24 h; for Dmax: human, 30 μM top dose, read-out: BRM HiBit Degradation Maximum
T1 construct: HiBiT; expressed in transfected cells
Experimental: (§1) Procedure: A stable HeLa cell line expressing HiBiT-BRM was generated. On day 0, 5000 cells were seeded in 40 μL of media into each well of 384-well cell culture plates. On day 1, cells were treated with 120 nL DMSO or 120 nL of 3-fold serially DMSO-diluted compounds (10 points in duplicate with 30 µM as final top dose). Subsequently plates were incubated for 24 h in a standard tissue culture incubator and equilibrated at room temperature for 15 minutes. Nano-Glo HiBiT Lytic Detection System (Promega N3050) reagent was freshly prepared and 20 μl was added to each well. Upon addition of this LgBit-containing reagent, the HiBIT and LgBiT proteins associate to form the luminescent NanoBiT luciferase. The plates were shaken for 10 minutes at room temperature and the bioluminescence read using an En Vision plate reader (PerkinElmer).
(§2) The degradation % was calculated using the following formula: % degradation=100%−100%×(Lumsample−LumLC)/(LumHC−LumLC). DMSO treated cells are employed as High Control (HC) and 2 μM of a known BRM/BRG1 degrader standard treated cells are employed as Low Control (LC).

[1] = target: T2, HiBit-BRG1 fusion protein (Homo sapiens, UniProt P51532); assay: HiBit-BRG1 degradation in a stable HeLa cell line expressing HiBit-BRG1 and LgBit (cell-based degradation assay); settings: HeLa cells, 24 h; for Dmax: human, 30 μM top dose, read-out: BRG1 HiBit Degradation Maximum
T2 construct: HiBiT; expressed in transfected cells
Experimental: as §1
For measurement of BRG1 degradation, a stable HeLa cell line expressing HiBit-BRG1 and LgBit was generated. The same protocol as above was then followed.
as §2

T2 sequence (P51532 whole entry, the tested form may be a part): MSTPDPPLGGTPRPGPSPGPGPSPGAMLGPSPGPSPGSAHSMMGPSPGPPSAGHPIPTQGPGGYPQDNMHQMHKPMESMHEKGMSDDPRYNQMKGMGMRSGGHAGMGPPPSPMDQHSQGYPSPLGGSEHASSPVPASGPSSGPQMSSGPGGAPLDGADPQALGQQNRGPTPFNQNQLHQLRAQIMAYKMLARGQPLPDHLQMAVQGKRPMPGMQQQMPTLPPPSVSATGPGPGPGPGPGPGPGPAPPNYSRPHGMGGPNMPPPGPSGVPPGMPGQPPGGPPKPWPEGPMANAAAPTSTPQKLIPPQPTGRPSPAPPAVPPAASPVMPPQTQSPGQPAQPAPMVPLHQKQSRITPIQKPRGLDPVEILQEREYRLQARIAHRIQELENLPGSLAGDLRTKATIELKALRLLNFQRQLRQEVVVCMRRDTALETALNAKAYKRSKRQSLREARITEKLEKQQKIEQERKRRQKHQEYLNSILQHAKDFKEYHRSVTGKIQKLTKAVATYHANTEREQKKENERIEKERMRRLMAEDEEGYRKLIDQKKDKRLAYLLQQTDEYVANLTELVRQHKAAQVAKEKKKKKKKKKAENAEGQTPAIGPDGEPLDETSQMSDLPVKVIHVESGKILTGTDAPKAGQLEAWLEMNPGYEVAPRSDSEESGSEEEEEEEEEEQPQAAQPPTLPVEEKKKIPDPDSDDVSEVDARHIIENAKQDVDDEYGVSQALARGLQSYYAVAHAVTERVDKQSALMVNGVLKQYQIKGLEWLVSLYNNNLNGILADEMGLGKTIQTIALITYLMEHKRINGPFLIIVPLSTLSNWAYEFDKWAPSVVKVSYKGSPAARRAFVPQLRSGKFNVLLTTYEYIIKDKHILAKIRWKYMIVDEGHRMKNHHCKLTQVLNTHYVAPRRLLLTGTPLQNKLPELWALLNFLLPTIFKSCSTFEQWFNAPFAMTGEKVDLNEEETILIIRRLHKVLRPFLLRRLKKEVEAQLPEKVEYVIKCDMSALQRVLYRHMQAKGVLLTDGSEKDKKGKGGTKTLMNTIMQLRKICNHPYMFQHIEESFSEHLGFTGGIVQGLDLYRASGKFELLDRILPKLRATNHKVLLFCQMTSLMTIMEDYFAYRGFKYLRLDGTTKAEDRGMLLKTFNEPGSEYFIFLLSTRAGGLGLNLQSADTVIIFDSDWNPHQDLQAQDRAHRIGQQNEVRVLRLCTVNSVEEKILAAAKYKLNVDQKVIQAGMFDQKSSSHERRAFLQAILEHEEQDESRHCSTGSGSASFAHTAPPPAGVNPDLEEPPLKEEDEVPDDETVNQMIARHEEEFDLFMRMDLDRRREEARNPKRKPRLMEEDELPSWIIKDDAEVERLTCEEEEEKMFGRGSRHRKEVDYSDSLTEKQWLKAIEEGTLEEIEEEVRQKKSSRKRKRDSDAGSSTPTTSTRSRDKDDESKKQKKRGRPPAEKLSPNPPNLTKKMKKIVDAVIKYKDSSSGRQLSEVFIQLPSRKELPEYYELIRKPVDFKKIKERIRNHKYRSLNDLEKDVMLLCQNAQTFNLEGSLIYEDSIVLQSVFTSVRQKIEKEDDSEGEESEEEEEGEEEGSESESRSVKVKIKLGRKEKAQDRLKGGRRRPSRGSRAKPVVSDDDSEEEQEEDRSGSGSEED
T1 sequence (P51531 whole entry, the tested form may be a part): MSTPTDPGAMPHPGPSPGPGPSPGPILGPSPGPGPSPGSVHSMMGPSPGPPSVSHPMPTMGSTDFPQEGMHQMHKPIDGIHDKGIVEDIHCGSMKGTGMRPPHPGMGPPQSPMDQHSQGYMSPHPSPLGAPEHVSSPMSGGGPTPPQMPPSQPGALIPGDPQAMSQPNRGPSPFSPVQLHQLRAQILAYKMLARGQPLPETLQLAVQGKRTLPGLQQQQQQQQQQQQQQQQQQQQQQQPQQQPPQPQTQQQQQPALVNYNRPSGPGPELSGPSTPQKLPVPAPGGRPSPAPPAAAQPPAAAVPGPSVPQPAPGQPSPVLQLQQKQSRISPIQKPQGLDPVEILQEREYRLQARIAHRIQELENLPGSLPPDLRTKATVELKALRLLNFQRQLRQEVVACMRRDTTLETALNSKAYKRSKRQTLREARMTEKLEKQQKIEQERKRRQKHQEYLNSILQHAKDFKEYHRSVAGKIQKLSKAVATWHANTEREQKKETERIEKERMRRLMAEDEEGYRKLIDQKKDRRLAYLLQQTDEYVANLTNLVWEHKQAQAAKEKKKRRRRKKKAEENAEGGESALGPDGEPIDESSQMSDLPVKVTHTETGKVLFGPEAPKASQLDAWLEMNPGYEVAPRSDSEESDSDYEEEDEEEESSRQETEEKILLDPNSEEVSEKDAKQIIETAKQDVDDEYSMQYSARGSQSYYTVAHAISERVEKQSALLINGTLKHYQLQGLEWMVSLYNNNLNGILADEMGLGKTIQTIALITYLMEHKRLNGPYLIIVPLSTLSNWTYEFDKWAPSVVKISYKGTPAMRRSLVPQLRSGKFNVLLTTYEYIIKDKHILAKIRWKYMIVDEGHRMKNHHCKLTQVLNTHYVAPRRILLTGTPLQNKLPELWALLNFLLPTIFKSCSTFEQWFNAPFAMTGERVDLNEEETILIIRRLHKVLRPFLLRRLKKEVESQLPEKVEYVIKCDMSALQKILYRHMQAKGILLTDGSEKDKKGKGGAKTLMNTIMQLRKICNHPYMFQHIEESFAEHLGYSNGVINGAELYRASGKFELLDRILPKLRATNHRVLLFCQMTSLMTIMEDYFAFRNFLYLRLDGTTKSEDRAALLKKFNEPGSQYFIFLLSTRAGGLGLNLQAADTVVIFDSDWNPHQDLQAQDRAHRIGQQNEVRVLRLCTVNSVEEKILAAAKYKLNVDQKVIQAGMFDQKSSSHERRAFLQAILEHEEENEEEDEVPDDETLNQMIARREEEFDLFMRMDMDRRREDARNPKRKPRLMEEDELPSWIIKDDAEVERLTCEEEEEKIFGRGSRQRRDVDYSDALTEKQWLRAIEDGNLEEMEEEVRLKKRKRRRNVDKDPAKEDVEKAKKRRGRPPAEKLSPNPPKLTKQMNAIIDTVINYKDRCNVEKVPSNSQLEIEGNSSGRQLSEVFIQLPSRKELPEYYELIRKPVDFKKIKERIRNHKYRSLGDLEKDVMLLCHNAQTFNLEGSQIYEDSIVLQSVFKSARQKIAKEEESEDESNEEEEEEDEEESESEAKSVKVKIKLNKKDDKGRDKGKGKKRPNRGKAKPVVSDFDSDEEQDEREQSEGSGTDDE

DC50 (HiBit-BRM fusion protein)	Dmax (HiBit-BRM fusion protein)	Dmax [1]	DC50 ([1]; read-out: BRMG1 HiBit Degradation DC50)	Compound
< 0.01 µM	≥ 75%	< 50%	–	Cc1ncsc1-c1ccc([C@H](C)NC(=O)[C@@H]2C[C@@H](O)CN2C(=O)[C@@H](c2cc(N3CC4(C3)CN(c3cc5nnc(-c6ccccc6O)cc5n(C)c3=O)C4)no2)C(C)C)cc1 (single isomer, unassigned) [Compound 4]
< 0.01 µM	≥ 75%	< 50%	–	Cc1ncsc1-c1ccc([C@H](C)NC(=O)[C@@H]2C[C@@H](O)CN2C(=O)[C@@H](c2cc(N3CC4(C3)CN(c3ccc5nnc(-c6ccccc6O)cc5n3)C4)no2)C(C)C)cc1 [Compound 1, (2S,4R)-4-hydroxy-1-[(2R)-2-(3-{6-[3-(2-hydroxyphenyl)pyrido[3,2-c]pyridazin-6-yl]-2,6-diazaspiro[3.3]heptan-2-yl}-1,2-oxazol-5-yl)-3-methylbutanoyl]-N-[(1S)-1-[4-(4-methyl-1,3-thiazol-5-yl)phenyl]ethyl]pyrrolidine-2-carboxamide]
< 0.01 µM	≥ 75%	≥ 75%	< 0.01 µM	Cc1ncsc1-c1ccc([C@H](C)NC(=O)[C@@H]2C[C@@H](O)CN2C(=O)[C@H](C(C)C)n2cc(-c3ccc4nnc(-c5ccccc5O)cc4n3)nn2)cc1 [Compound 2, (2S,4R)-4-hydroxy-1-[(2S)-2-{4-[3-(2-hydroxyphenyl)pyrido[3,2-c]pyridazin-6-yl]-1,2,3-triazol-1-yl}-3-methylbutanoyl]-N-[(1S)-1-[4-(4-methyl-1,3-thiazol-5-yl)phenyl]ethyl]pyrrolidine-2-carboxamide]
< 0.01 µM	≥ 75%	< 50%	–	Cc1nc2cc(-c3ccccc3O)nnc2cc1N1CC2(CN(c3cc([C@H](C(=O)N4C[C@H](O)C[C@H]4C(=O)N[C@@H](C)c4ccc(-c5scnc5C)cc4)C(C)C)on3)C2)C1 [Compound 3, (2S,4R)-4-hydroxy-1-[(2R)-2-(3-{6-[3-(2-hydroxyphenyl)-6-methylpyrido[3,2-c]pyridazin-7-yl]-2,6-diazaspiro[3.3]heptan-2-yl}-1,2-oxazol-5-yl)-3-methylbutanoyl]-N-[(1S)-1-[4-(4-methyl-1,3-thiazol-5-yl)phenyl]ethyl]pyrrolidine-2-carboxamide]
